The source of these data is patent publication US11332452B2, “Pesticidal compositions and methods” (priority 2019, dated 2022).

Common to all, as to assay type: in vivo
In data set [1] the test system is Yellow Fever Mosquito (Aedes aegypti, AEDSAE). Kind of data set: Insecticidal test for yellow fever mosquito (YFM), 96-well plate larval assay. The following applies: from 4000 ppm DMSO master solution, diluted; about 1 day-old larvae; room temperature; scored after 3 days. How it is done: Insecticidal Test for Yellow Fever Mosquito (Aedes aegypti, AEDSAE) (“YFM”)
Master plates containing 400 μg of a molecule dissolved in 100 μL of dimethyl sulfoxide (DMSO) (equivalent to a 4000 ppm solution) are used. A master plate of assembled molecules contains 15 μL per well. To this plate, 135 μL of a 90:10 water/acetone mixture is added to each well. A robot (Biomek® NXP Laboratory Automation Workstation) is programmed to dispense 15 μL aspirations from the master plate into an empty 96-well shallow plate (“daughter” plate). There are 6 reps (“daughter” plates) created per master. The created “daughter” plates are then immediately infested with YFM larvae.
The day before plates are to be treated, mosquito eggs are placed in Millipore water containing liver powder to begin hatching (4 g. into 400 mL). After the “daughter” plates are created using the robot, they are infested with 220 μL of the liver powder/larval mosquito mixture (about 1 day-old larvae). After plates are infested with mosquito larvae, a non-evaporative lid is used to cover the plate to reduce drying. Plates are held at room temperature for 3 days prior to grading. After 3 days, each well is observed and scored based on mortality.

In data set [2] the test system is Beet Armyworm (Spodoptera exigua, LAPHEG). Kind of data set: Insecticidal test for beet armyworm (BAW), 128-well diet tray assay. The following applies: 168 h, 50 μg/cm^2 of test compound on artificial diet, second instar larvae, 25° C., five to seven days, average of eight wells, read-out: BAW % Control (or Mortality) rating. How it is done:
Insecticidal Test for Beet Armyworm (Spodoptera exigua, LAPHEG) (“BAW”)
(§1) Bioassays on beet armyworm (BAW; Spodoptera exigua: Lepidoptera) are conducted using a 128-well diet tray assay. One to five second instar BAW larvae are placed in each well (3 mL) of the diet tray that had been previously filled with 1 mL of artificial diet to which 50 μg/cm^2 of the test compound (dissolved in 50 μL of 90:10 acetone-water mixture) had been applied (to each of eight wells) and then allowed to dry. Trays are covered with a clear self-adhesive cover, vented to allow gas exchange, and held at 25° C., 14:10 light-dark for five to seven days. Percent mortality is recorded for the larvae in each well; activity in the eight wells is then averaged.

Data set [3] has as its system Cabbage Looper (Trichloplusia Ni, TRIPNI). Kind of data set: Insecticidal test for cabbage looper (CL), 128-well diet tray assay. The conditions noted are these: Trichoplusia ni, 168 h, read-out: CL % Control (or Mortality) rating. How it is done:
Insecticidal Test for Cabbage Looper (Trichloplusia Ni, TRIPNI) (“CL”)
as §1, with “cabbage looper (CL; Trichloplusia ni:” for “beet armyworm (BAW; Spodoptera exigua:”, “CL” for “BAW”

The mortality is the share of the test organisms that died. Consider `Cc1ccc(C(C)C)c(N2C(=O)CS/C2=N\C(=O)Nc2ccc(N/N=C/c3ccc(OC(F)(F)F)cc3)cc2)c1` [Compound A55, 1-((Z)-3-(2-Isopropyl-5-methylphenyl)-4-oxothiazolidin-2-ylidene)-3-(4-(2-((E)-4-(trifluoromethoxy)benzylidene)hydrazinyl)phenyl)urea], for which the “YFM % Control (or Mortality) rating” value in data set [1] is listed as “A (80-100)”. The mortality at 50 µg/cm2 in data set [2] and in data set [3] was 50 to 100% each time.

On to `Cc1ccc(OCC(F)(F)F)c(N2C(=O)CS/C2=N\C(=O)NC(C)Cc2ccc(NC(=O)Nc3ccc(OC(F)(F)F)cc3)cc2)c1` (stereo not drawn) [Compound A38, (Z)-1-(4-(2-(3-(3-(5-Methyl-2-(2,2,2-trifluoroethoxy)phenyl)-4-oxothiazolidin-2-ylidene)ureido)propyl)phenyl)-3-(4-(trifluoromethoxy)phenyl)urea], for which the “YFM % Control (or Mortality) rating” value in data set [1] is “B (More than 0-Less than 80)”. Also, the mortality at 50 µg/cm2 in data set [2] and in data set [3] was 50 to 100% in each case.

`Cc1ccc(OCC(F)(F)F)c(N2C(=O)CS/C2=N\C(=O)NCCc2ccc(NC(=O)Nc3ccc(OC(F)(F)F)cc3)cc2)c1` [Compound A19, (Z)-1-(4-(2-(3-(3-(5-Methyl-2-(2,2,2-trifluoroethoxy)phenyl)-4-oxothiazolidin-2-ylidene)ureido)ethyl)phenyl)-3-(4-(trifluoromethoxy)phenyl)urea]: in data set [1], the “YFM % Control (or Mortality) rating” value is given as “B (More than 0-Less than 80)”. Moreover, the mortality at 50 µg/cm2 in data set [2] and in data set [3] was 50 to 100% each time.

On to `Cc1ccc(C(C)C)c(N2C(=O)CS/C2=N\C(=O)Nc2ccc(NC(=O)c3ccc(OC(F)(F)F)cc3)cc2)c1` [Compound A48, (Z)—N-(4-(3-(3-(2-isopropyl-5-methylphenyl)-4-oxothiazolidin-2-ylidene)ureido)phenyl)-4-(trifluoromethoxy)benzamide], for which, in data set [1], the “YFM % Control (or Mortality) rating” value is reported as “A (80-100)”. Moreover, the mortality at 50 µg/cm2 in data set [2] and in data set [3] was 50 to 100% in each case.

For the molecule `CC(C)c1ccccc1N1C(=O)CS/C1=N\C(=O)NCCc1ccc(NC(=O)Nc2ccc(OC(F)(F)F)cc2)cc1` [Compound A16, (Z)-1-(4-(2-(3-(3-(2-Isopropylphenyl)-4-oxothiazolidin-2-ylidene)ureido)ethyl)phenyl)-3-(4-(trifluoromethoxy)phenyl)urea], the “YFM % Control (or Mortality) rating” value in data set [1] is recorded as “A (80-100)”. Besides, the mortality at 50 µg/cm2 in data set [2] and in data set [3] was 50 to 100% each time.

Regarding `Cc1ccc(C(C)C)c(-n2ccs/c2=N\C(=O)NCCc2ccc(NC(=O)Nc3ccc(OC(F)(F)F)cc3)cc2)c1` [Compound A22, (Z)-1-(4-(2-(3-(3-(2-Isopropyl-5-methylphenyl)thiazol-2(3H)-ylidene)ureido)ethyl)phenyl)-3-(4-(trifluoromethoxy)phenyl)urea], the “YFM % Control (or Mortality) rating” value in data set [1] is reported as “A (80-100)”. Further, the mortality at 50 µg/cm2 in data set [2] and in data set [3] was 50 to 100% each time.

As for `Cc1ccc(C(C)C)c(N2C(=O)CS/C2=N\C(=O)Nc2ccc(CCNC(=S)Nc3ccc(OC(F)(F)F)cc3)cc2)c1` [Compound A47, (Z)-1-(3-(2-isopropyl-5-methylphenyl)-4-oxothiazolidin-2-ylidene)-3-(4-(2-(3-(4-(trifluoromethoxy)phenyl)thioureido)ethyl)phenyl)urea], the “YFM % Control (or Mortality) rating” value in data set [1] is reported as “A (80-100)”. Further, the mortality at 50 µg/cm2 in data set [2] and in data set [3] was 50 to 100% throughout.

In the case of `COc1ccc(N2C(=O)CS/C2=N\C(=O)NCCc2ccc(NC(=O)Nc3ccc(OC(F)(F)F)cc3)cc2)c(C)c1` [Compound A21, (Z)-1-(4-(2-(3-(3-(4-methoxy-2-methylphenyl)-4-oxothiazolidin-2-ylidene)ureido)ethyl)phenyl)-3-(4-(trifluoromethoxy)phenyl)urea], in data set [1], the “YFM % Control (or Mortality) rating” value was “A (80-100)”. Also, the mortality at 50 µg/cm2 in data set [2] and in data set [3] was 50 to 100% throughout.

On to `CCc1cccc(C)c1N1C(=O)CS/C1=N\C(=O)NC(C)Cc1ccc(NC(=O)Nc2ccc(OC(F)(F)F)cc2)cc1` (stereo not drawn) [Compound A40, (Z)-1-(4-(2-(3-(3-(2-Ethyl-6-methylphenyl)-4-oxothiazolidin-2-ylidene)ureido)propyl)phenyl)-3-(4-(trifluoromethoxy)phenyl)urea], for which the “YFM % Control (or Mortality) rating” value in data set [1] is “A (80-100)”. The mortality at 50 µg/cm2 in data set [2] and in data set [3] was 50 to 100% each time.

As for `O=C(/N=C1\SCC(=O)N1c1cc(Cl)ccc1OCC(F)(F)F)NCCc1ccc(NC(=O)Nc2ccc(OC(F)(F)F)cc2)cc1` [Compound A17, (Z)-1-(4-(2-(3-(3-(5-Chloro-2-(2,2,2-trifluoroethoxy)phenyl)-4-oxothiazolidin-2-ylidene)ureido)ethyl)phenyl)-3-(4-(trifluoromethoxy)phenyl)urea], the “YFM % Control (or Mortality) rating” value in data set [1] is “A (80-100)”. Besides, the mortality at 50 µg/cm2 in data set [2] and in data set [3] was 50 to 100% throughout.

In the case of `Cc1ccc(C(C)C)c(N2C(=O)CS/C2=N\C(=O)NC(C)Cc2ccc(NC(=O)Nc3ccc(C(F)(F)F)cc3)cc2)c1` (stereo not drawn) [Compound A27, (Z)-1-(4-(2-(3-(3-(2-Isopropyl-5-methylphenyl)-4-oxothiazolidin-2-ylidene)ureido)propyl)phenyl)-3-(4-(trifluoromethyl)phenyl)urea], in data set [1], the “YFM % Control (or Mortality) rating” value was “A (80-100)”. For the same molecule, the mortality at 50 µg/cm2 in data set [2] and in data set [3] was 50 to 100% in each case.

On to `CC(Cc1ccc(NC(=O)Nc2ccc(OC(F)(F)F)cc2)cc1)NC(=O)/N=C1\SCC(=O)N1c1ccccc1C(C)C` (stereo not drawn) [Compound A34, (Z)-1-(4-(2-(3-(3-(2-Isopropylphenyl)-4-oxothiazolidin-2-ylidene)ureido)propyl)phenyl)-3-(4-(trifluoromethoxy)phenyl)urea], for which the “YFM % Control (or Mortality) rating” value in data set [1] is on record as “A (80-100)”. For the same molecule, the mortality at 50 µg/cm2 in data set [2] and in data set [3] was 50 to 100% each time.

On to `Cc1ccc(C(C)C)c(-n2ccs/c2=N\C(=O)NCCc2ccc(NC(=O)Nc3ccc(C(F)(F)F)cc3)cc2)c1` [Compound A14, (Z)-1-(4-(2-(3-(3-(2-Isopropyl-5-methylphenyl)thiazol-2(3H)-ylidene)ureido)ethyl)phenyl)-3-(4-(trifluoromethyl)phenyl)urea], for which the “YFM % Control (or Mortality) rating” value in data set [1] is “A (80-100)”. Further, the mortality at 50 µg/cm2 in data set [2] and in data set [3] was 50 to 100% each time.

Consider `Cc1ccc(C(C)C)c(N2C(=O)CS/C2=N\C(=O)NCCc2ccc(NC(=O)Nc3ccc(C(F)(F)F)cc3)cc2)c1` [Compound A9, (Z)-1-(4-(2-(3-(3-(2-isopropyl-5-methylphenyl)-4-oxothiazolidin-2-ylidene)ureido)ethyl)phenyl)-3-(4-(trifluoromethyl)phenyl)urea], for which the “YFM % Control (or Mortality) rating” value in data set [1] was “A (80-100)”. Besides, the mortality at 50 µg/cm2 in data set [2] and in data set [3] was 50 to 100% in each case.

Turning to `CC(Cc1ccc(NC(=O)Nc2ccc(OC(F)(F)F)cc2)cc1)NC(=O)/N=C1\SCC(=O)N1c1cccc2c1CCCC2` (stereo not drawn) [Compound A42, (Z)-1-(4-(2-(3-(4-Oxo-3-(5,6,7,8-tetrahydronaphthalen-1-yl)thiazolidin-2-ylidene)ureido)propyl)phenyl)-3-(4-(trifluoromethoxy)phenyl)urea], the “YFM % Control (or Mortality) rating” value in data set [1] is “A (80-100)”. Moreover, the mortality at 50 µg/cm2 in data set [2] and in data set [3] was 50 to 100% each time.

For `CC(C)c1ccccc1N1C(=O)CS/C1=N\C(=O)NCCc1ccc(NC(=O)Nc2ccc(C(F)(F)F)cc2)cc1` [Compound A12, (Z)-1-(4-(2-(3-(3-(2-Isopropylphenyl)-4-oxothiazolidin-2-ylidene)ureido)ethyl)phenyl)-3-(4-(trifluoromethyl)phenyl)urea], the “YFM % Control (or Mortality) rating” value in data set [1] was “A (80-100)”. Further, the mortality at 50 µg/cm2 in data set [2] and in data set [3] was 50 to 100% in each case.
